Where two headings read alike, the source gives them in different places. Values belong to the compound of their own block, whether it stands above or below them. Where a SMILES comes first, the peptide text is derived from it. Where no end group is shown, it is not given here. [ ]: non-standard residue; d: D form. βAla = NCCC(=O)O
Columns and labels:
[1] = test system: Mouse hybridoma CAU 96; assay: Batch T-flask culture of hybridoma with oligopeptide supplements (Example 2); type: cell-based; settings: for growth stimulating effect on the hybridoma cell line (in words): Tables 3 to 7
Source text: Cells: Mouse hybridoma CAU 96 producing monoclonal lgG2a
Starting viable cell density is 310000 (3.1*10^5) cells per ml.

[2] = test system: Mouse hybridoma CAU 96; assay: Amino acid analysis of the culture medium during cultivation of hybridoma cells with tetrapeptide
Procedure: (§1) Cells: Mouse hybridoma CAU 96 producing monoclonal lgG2a antibody.
(§2) Medium: DMEM/F-12/RPMI 1640 (2:1:1) supplemented with Basal Medium Eagle (BME) amino acids, 2.0 mM glutamine, 15 mM HEPES (N-2-Hydroxyethylpiperazine-N′-2-ethanesulfonic acid), 2.0 g/l sodium bicarbonate and 0.4 mM ferric citrate.
(§3) Culture mode: 25 cm^3 T-flasks (Nunc) culture volume 6.0 ml, placed at 37° C. in an incubator with 5% CO^2; starting viable cell density is 3.1×10^5 cells per ml.
(§4) Preparation of samples of amino acid analysis: Cells are removed by low-speed centrifugation and macromolecular components are removed by ultrafiltration.

[3] = test system: Mouse hybridoma CAU 96
Procedure: as §1, §2, §3, §4

[4] = test system: Mouse hybridoma CAU 96; remark: listed apart in the source
Procedure: Medium: DMEM/F-12/RPMI 1640 (2:1:1) supplemented with BME amino acids, MEM non essential amino acids, 2.0 mM glutamine, 15 mM HEPES, 2.0 g/L sodium bicarbonate and 0.4 mM ferric citrate.
Culture mode: 25 cm^2 T-flasks (Supplier: Nunc), culture volume 6.0 ml, placed at 37° C. in an incubator with 5% CO2; starting viable cell density is 3.1×10^5 cells per ml.

[5] = Table 4, Day 6, supplement 0.2% w/v
[6] = Table 3, Day 7, supplement 0.2% w/v
[7] = Table 5, Day 6, supplement 0.2% w/v
[8] = Table 6, Day 6, supplement 0.1% w/v
[9] = Table 6, Day 6, supplement 0.2% w/v
[10] = Table 4, Day 6, supplement 0.1% w/v
[11] = Table 7, Day 6, supplement 0.1% w/v
[12] = Table 7, Day 6, supplement 0.2% w/v
[13] = Table 7, Day 6, supplement 0.05% w/v
[14] = Table 5, Day 6, supplement 0.05% w/v
[15] = Table 5, Day 6, supplement 0.1% w/v
[16] = Table 5, Day 6, supplement 0.3% w/v

Compound: C[C@H](N)C(=O)O [Alanine, reference compound]
Viable cell number % of control [1]: 94 % of control
Monoclonal antibody [1, 5]: 110 mg/L
Viability [1, 5]: 60%
Viable cell number [1, 5]: 1030 cells/μL
growth stimulating effect on the hybridoma cell line (in words) [1]: insignificant

Compound: NCC(=O)O [Glycine, reference compound]
Viable cell number % of control [1]: 102 % of control
Monoclonal antibody [1, 6]: 160 mg/L
Viability [1, 6]: 60%
Viable cell number [1, 6]: 1080 cells/μL
growth stimulating effect on the hybridoma cell line (in words) [1]: does not significantly stimulate cell growth

Compound: N[C@@H](CO)C(=O)O [Serine, reference compound]
Viable cell number % of control [1]: 104 % of control
Monoclonal antibody [1, 7]: 111 mg/L
Viability [1, 7]: 63%
Viable cell number [1, 7]: 1190 cells/μL
growth stimulating effect on the hybridoma cell line (in words) [1]: insignificant

Amino acid concentration, Day 0 ([2]; Table 2, culture medium with tetraalanine, day 0): 1.84
Amino acid concentration, Day 4 ([2]; Table 2, culture medium with tetraalanine, day 4): 1.28
Amino acid concentration, Difference ([2]; Table 2, day 4 minus day 0): −0.56
Compound: C[C@H](N)C(=O)N[C@@H](C)C(=O)N[C@@H](C)C(=O)N[C@@H](C)C(=O)O [Tetraalanine, Ala-Ala-Ala-Ala] (H-AAAA-OH; N-terminus and C-terminus assumed)
Viability ([1]; 0.1 % w/v): 66%
Viability ([1]; 0.2 % w/v): 72%

Amino acid concentration, Day 0 [3]: 7.14 mM
Amino acid concentration, Day 4 [3]: 6.55 mM
Compound: NCC(=O)NCC(=O)NCC(=O)NCC(=O)O [Tetraglycine, Gly-Gly-Gly-Gly] (H-GGGG-OH; N-terminus and C-terminus assumed)
Viable cell number % of control [1]: 176 % of control
Viability ([1]; 0.2 % w/v): 80%
Viability ([4]; 0.1 % w/v): 78%
Viability ([4]; 0.2 % w/v): 77%
Viability ([4]; 0.3 % (w/v)): 80%

Compound: C[C@@H](O)[C@H](N)C(=O)O [Threonine, reference compound]
Viable cell number % of control [1]: 97 % of control
Monoclonal antibody [1, 7]: 114 mg/L
Viability [1, 7]: 59%
Viable cell number [1, 7]: 1100 cells/μL

Compound: NCC(=O)NCC(=O)NCC(=O)O [Triglycine, Gly-Gly-Gly] (H-Gly-Gly-Gly-OH)
Viability ([1]; 0.1 % w/v): 78%
Monoclonal antibody [1, 6]: 160 mg/L
Viable cell number [1, 6]: 1660 cells/μL
Monoclonal antibody [1, 8]: 98 mg/L
Viable cell number [1, 8]: 1350 cells/μL
Monoclonal antibody [1, 9]: 89 mg/L
Viable cell number [1, 9]: 1300 cells/μL

Compound: NCCC(=O)O [β-alanine, reference compound]
Viable cell number % of control [1]: 106 % of control
Monoclonal antibody [1, 7]: 105 mg/L
Viability [1, 7]: 60%
Viable cell number [1, 7]: 1210 cells/μL
growth stimulating effect on the hybridoma cell line (in words) [1]: insignificant

Compound: Ala-Ala-Ala [Trialanine]
Monoclonal antibody [1, 10]: 130 mg/L
Viability [1, 10]: 69%
Viable cell number [1, 10]: 1390 cells/μL
Monoclonal antibody [1, 5]: 132 mg/L
Viability [1, 5]: 70%
Viable cell number [1, 5]: 1420 cells/μL

Compound: Diglycine
Viable cell number % of control [1]: 114 % of control
Monoclonal antibody [1, 6]: 165 mg/L
Viability [1, 6]: 70%
Viable cell number [1, 6]: 1210 cells/μL

Compound: Gly-Arg-Gly
Monoclonal antibody [1, 8]: 106 mg/L
Viability [1, 8]: 65%
Viable cell number [1, 8]: 1360 cells/μL
Monoclonal antibody [1, 9]: 121 mg/L
Viability [1, 9]: 66%
Viable cell number [1, 9]: 1270 cells/μL

Compound: Gly-Asp-Gly
Monoclonal antibody [1, 8]: 98 mg/L
Viability [1, 8]: 64%
Viable cell number [1, 8]: 1340 cells/μL
Monoclonal antibody [1, 9]: 92 mg/L
Viability [1, 9]: 70%
Viable cell number [1, 9]: 1420 cells/μL

Compound: Gly-Gly-Glu-Ala (GGEA)
Monoclonal antibody [1, 11]: 100 mg/L
Viability [1, 11]: 82%
Viable cell number [1, 11]: 1350 cells/μL
Monoclonal antibody [1, 12]: 113 mg/L
Viability [1, 12]: 77%
Viable cell number [1, 12]: 1280 cells/μL

Compound: Gly-Gly-Gly-Gly-Gly [Pentaglycine]
Viable cell number % of control [1]: 190 % of control
Monoclonal antibody [1, 6]: 165 mg/L
Viability [1, 6]: 82%
Viable cell number [1, 6]: 2020 cells/μL

Compound: Gly-Gly-Gly-Gly-Gly-Gly [Hexaglycine]
Viable cell number % of control [1]: 183 % of control
Monoclonal antibody [1, 6]: 160 mg/L
Viability [1, 6]: 79%
Viable cell number [1, 6]: 1940 cells/μL

Compound: Gly-Gly-His-Gly (GGHG)
Monoclonal antibody [1, 11]: 93 mg/L
Viability [1, 11]: 77%
Viable cell number [1, 11]: 1360 cells/μL
Monoclonal antibody [1, 12]: 84 mg/L
Viability [1, 12]: 71%
Viable cell number [1, 12]: 1180 cells/μL

Compound: Gly-Gly-Lys-Ala (GGKA)
Monoclonal antibody [1, 11]: 118 mg/L
Viability [1, 11]: 79%
Viable cell number [1, 11]: 1310 cells/μL
Monoclonal antibody [1, 12]: 134 mg/L
Viability [1, 12]: 78%
Viable cell number [1, 12]: 1290 cells/μL

Compound: Gly-His-Gly
Monoclonal antibody [1, 8]: 121 mg/L
Viability [1, 8]: 65%
Viable cell number [1, 8]: 1180 cells/μL
Monoclonal antibody [1, 9]: 144 mg/L
Viability [1, 9]: 66%
Viable cell number [1, 9]: 900 cells/μL

Compound: Gly-Lys-Gly
Monoclonal antibody [1, 8]: 128 mg/L
Viability [1, 8]: 67%
Viable cell number [1, 8]: 1250 cells/μL
Monoclonal antibody [1, 9]: 154 mg/L
Viability [1, 9]: 62%
Viable cell number [1, 9]: 1100 cells/μL

Compound: Gly-βAla-Gly-Gly (G[βAla]GG)
Monoclonal antibody [1, 13]: 121 mg/L
Viability [1, 13]: 68%
Viable cell number [1, 13]: 1100 cells/μL
Monoclonal antibody [1, 11]: 129 mg/L
Viability [1, 11]: 65%
Viable cell number [1, 11]: 1150 cells/μL
Monoclonal antibody [1, 12]: 150 mg/L
Viability [1, 12]: 72%
Viable cell number [1, 12]: 1270 cells/μL

Compound: Ser-Ser-Ser [Triserine]
Monoclonal antibody [1, 14]: 109 mg/L
Viability [1, 14]: 61%
Viable cell number [1, 14]: 1200 cells/μL
Monoclonal antibody [1, 15]: 112 mg/L
Viability [1, 15]: 65%
Viable cell number [1, 15]: 1340 cells/μL
Monoclonal antibody [1, 7]: 126 mg/L
Viability [1, 7]: 70%
Viable cell number [1, 7]: 1550 cells/μL
Monoclonal antibody [1, 16]: 142 mg/L
Viability [1, 16]: 78%
Viable cell number [1, 16]: 1610 cells/μL

Compound: Thr-Thr-Thr [Trithreonine]
Monoclonal antibody [1, 14]: 122 mg/L
Viability [1, 14]: 67%
Viable cell number [1, 14]: 1310 cells/μL
Monoclonal antibody [1, 15]: 130 mg/L
Viability [1, 15]: 70%
Viable cell number [1, 15]: 1370 cells/μL
Monoclonal antibody [1, 7]: 152 mg/L
Viability [1, 7]: 73%
Viable cell number [1, 7]: 1450 cells/μL

Reference: patent publication US7101664B2, “Bioactive oligopeptides” (Polymun Scientific Immunbiologische Forschung GmbH, priority 1999, dated 2006)
